Measurements taken from ChEMBL document CHEMBL5724696, “Autophagy assay results for EUbOPEN Chemogenomics Library” (2024).
Where “and” joins values, the source holds several entries; their conditions need not be identical. Equal entries are not always repeated.

How the values were obtained:
Assay type in all cases: functional, Homo sapiens
TERT-RPE1 = assay: (§1) Here: values are normalized to the negative (DMSO; defined as 0% autophagy induction) and positive (250nM Torin1; mTOR inhibitor; defined as maximal inducer of autophagy = 100%) control compounds and represented as % of autophagy induction. […] The impact of autophagy induction on cells is complex and depends on the affected target. As such, the magnitude of a phenotype may not be equally mirrored in the %-value of autophagy induction and vice versa. The dynamics of the induction may indicate the mode of activation: e.g. activation via phosphorylation or a signaling cascade may occur fast, while activation via transcription factors may take considerably longer. […] Of note, treatment concentrations may be sub-optimal for specific compounds, leading to false negative annotations.; settings: Culturing Media DMEM/F12 (1:1), 1 % Penicillin/Streptomycin, 10% Fetal bovin serum Add-On: No, Screening Media Control DMEM/F12 (1:1), Screening Media Samples DMEM/F12 (1:1)
U2OS [1] = assay: as §1; settings: Culturing Media DMEM, 1 % Penicillin/Streptomycin, 10% Fetal bovin serum Add-On: No, Screening Media Control DMEM, Screening Media Samples DMEM
U2OS [2] = assay: as §1; settings: Culturing Media DMEM, 1 % Penicillin/Streptomycin, 10% Fetal bovin serum Add-On: No, Screening Media Control DMEM, Screening Media Samples DMEM; remark: listed apart in the source
[3] = Compound Concentration 0.5 uM, Timepoint 12 hours, 12 h, 0.5 µM
[4] = Compound Concentration 0.5 uM, Timepoint 24 hours, 24 h, 0.5 µM
[5] = Compound Concentration 0.5 uM, Timepoint 36 hours, 36 h, 0.5 µM
[6] = Compound Concentration 0.5 uM, Timepoint 60 hours, 60 h, 0.5 µM
[7] = Compound Concentration 2 uM, Timepoint 24 hours, 24 h, 2 µM
[8] = Compound Concentration 2 uM, Timepoint 36 hours, 36 h, 2 µM
[9] = Compound Concentration 2 uM, Timepoint 60 hours, 60 h, 2 µM
[10] = Compound Concentration 10 uM, Timepoint 12 hours, 12 h, 10 µM
[11] = Compound Concentration 10 uM, Timepoint 24 hours, 24 h, 10 µM
[12] = Compound Concentration 10 uM, Timepoint 36 hours, 36 h, 10 µM
[13] = Compound Concentration 10 uM, Timepoint 60 hours, 60 h, 10 µM
[14] = Compound Concentration 0.5 uM, Timepoint 12 hours
[15] = Compound Concentration 0.5 uM, Timepoint 24 hours
[16] = Compound Concentration 0.5 uM, Timepoint 36 hours
[17] = Compound Concentration 0.5 uM, Timepoint 60 hours
[18] = Compound Concentration 2 uM, Timepoint 12 hours
[19] = Compound Concentration 2 uM, Timepoint 24 hours
[20] = Compound Concentration 2 uM, Timepoint 36 hours
[21] = Compound Concentration 2 uM, Timepoint 60 hours
[22] = Compound Concentration 10 uM, Timepoint 12 hours
[23] = Compound Concentration 10 uM, Timepoint 24 hours
[24] = Compound Concentration 10 uM, Timepoint 36 hours
[25] = Compound Concentration 10 uM, Timepoint 60 hours

SMILES | autophagy induction (TERT-RPE1; [3]) | autophagy induction (TERT-RPE1; [4]) | autophagy induction (TERT-RPE1; [5]) | autophagy induction (TERT-RPE1; [6]) | autophagy induction (TERT-RPE1; [7]) | autophagy induction (TERT-RPE1; [8]) | autophagy induction (TERT-RPE1; [9]) | autophagy induction (TERT-RPE1; [10]) | autophagy induction (TERT-RPE1; [11]) | autophagy induction (TERT-RPE1; [12]) | autophagy induction (TERT-RPE1; [13]) | autophagy induction (U2OS [1]; [14]) [%] | autophagy induction (U2OS [1]; [15]) [%] | autophagy induction (U2OS [1]; [16]) [%] | autophagy induction (U2OS [1]; [17]) [%] | autophagy induction (U2OS [1]; [18]) [%] | autophagy induction (U2OS [1]; [19]) [%] | autophagy induction (U2OS [1]; [20]) [%] | autophagy induction (U2OS [1]; [21]) [%] | autophagy induction (U2OS [1]; [22]) [%] | also measured
CCCCCCCCCCCCCCCCOC[C@H](COP(=O)([O-])OCC[N+](C)(C)C)OC(C)=O | -0.9527% and 1.704% | -3.436% and -0.1454% | -3.259% and 2.221% | -5.529% and 3.615% | -0.2119% and 13.6511% | -1.573% and 9.518% | -2.541% and 14.6368% | 8.2187% and 7.039% | 4.065% and 6.451% | 4.665% and 7.035% | 6.217% and 11.8263% | 2.963 | 0.1782 | 2280.79 | -1.799 | -5.387 | -3.326 | 2231.79 | -1.895 | -2.708 | autophagy induction (U2OS [1]; [23]): -1.793%; autophagy induction (U2OS [1]; [24]): 678.152%; autophagy induction (U2OS [1]; [25]): 1.655%; autophagy induction (U2OS [2]; [14]): 1.863%; autophagy induction (U2OS [2]; [15]): 3.665%; autophagy induction (U2OS [2]; [16]): -3.033%; autophagy induction (U2OS [2]; [17]): -9.658%; autophagy induction (U2OS [2]; [18]): 2.298%; autophagy induction (U2OS [2]; [19]): -2.882%; autophagy induction (U2OS [2]; [20]): -2.921%; autophagy induction (U2OS [2]; [21]): -2.8%; autophagy induction (U2OS [2]; [22]): 10.6263%; autophagy induction (U2OS [2]; [23]): 0.8651%; autophagy induction (U2OS [2]; [24]): 6.18%; autophagy induction (U2OS [2]; [25]): 5.674%
FC(F)(F)c1c(N2CCC(c3ccccc3)CC2)ccn2c(CC3CC3)nnc12 | 0.8285% and 1.833% | -1.6355% and 0.4371% | -2.42% and 3.239% | -6.544% and 5.154% | -0.3973% and 6.29% | -4.125% and 5.099% | -2.871% and 7.601% | 0.02052% and 7.4327% | -1.251% and 7.807% | -2.896% and 10.4333% | -4.9464% and 19.419% | -3.682 | -3.457 | 1345.14 | -2.1724 | -2.443 | -4.21 | -60.9304 | -2.478 | 1.237 | autophagy induction (TERT-RPE1; Compound Concentration 2 uM, Timepoint 12 hours, 12 h, 2 µM): -0.736% and 6.309%; autophagy induction (U2OS [1]; [23]): -0.8788%; autophagy induction (U2OS [1]; [24]): -59.5065%; autophagy induction (U2OS [1]; [25]): -0.8045%; autophagy induction (U2OS [2]; [14]): 6.212%; autophagy induction (U2OS [2]; [15]): 3.779%; autophagy induction (U2OS [2]; [16]): -3.086%; autophagy induction (U2OS [2]; [17]): -2.905%; autophagy induction (U2OS [2]; [18]): -8.584%; autophagy induction (U2OS [2]; [19]): -5.642%; autophagy induction (U2OS [2]; [20]): -3.294%; autophagy induction (U2OS [2]; [21]): -4.323%; autophagy induction (U2OS [2]; [22]): -9.128%; autophagy induction (U2OS [2]; [23]): -9.508%; autophagy induction (U2OS [2]; [24]): -1.15%; autophagy induction (U2OS [2]; [25]): -1.079%
